For this assay, the system named is primary CLL cells. The experiment in a line: tetrazolium-based (MTS) cell viability assay on fresh primary CLL cells. The arrangement: species or system human. To be noted: 10 nM to 10 μM, 3 days. An excerpt:
The viability data were normalized to untreated controls and were used to calculate IC50 values.

Consider one compound from patent US20130237493A1, “COMBINATION THERAPY OF 4-(CYCLOPROPYLAMINO)-2-(4-(4-(ETHYLSULFONYL)PIPERAZIN-1-YL)PHENYLAMINO)PYRIMIDINE-5-CARBOXAMIDE AND FLUDARABINE” (Portola Pharmaceuticals, Inc., priority 2010, published 2013).

For `CCS(=O)(=O)N1CCN(c2ccc(Nc3ncc(C(N)=O)c(NC4CC4)n3)cc2)CC1` [Compound 2, 4-(cyclopropylamino)-2-(4-(4-(ethylsulfonyl)piperazin-1-yl)phenylamino)pyrimidine-5-carboxamide], the “single agent activity in CLL” value is “single agent activity”.
